According to patent US20140187556A1, “ANTI-AMYLOID COMPOUNDS AND METHODS” (Treventis Corporation, priority 2011, published 2014):
Like-named read-outs stand apart in the source and are kept apart here.

How the values were obtained:
Aβ40 = target: T1, Aβ40 (Homo sapiens, UniProt P05067); assay: Thioflavin T (ThT) Aβ aggregation assay; assay type: biochemical; details: 20 μM Aβ40, 37 degrees C
T1 construct: pre-treated Aβ40 (40 μM in 20 mM Tris, pH 7.4)
Procedure, shortened: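 Aβ40 was HFIP-pretreated to remove preformed aggregates; 20 µM Aβ40 incubated with compound and 4 µM ThT in 20 mM Tris pH 7.4, 150 mM NaCl, 1% DMSO at 37 °C. Fluorescence (ex 450/em 480 nm) read every 15 min after shaking; inhibition judged by attenuated fluorescence rise versus DMSO controls.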

[1] = Blood-brain barrier penetration potential using MDR1-MDCK cell monolayers; assay type: in vitro ADME; details: dog
From the text: This assay is used to determine the blood-brain barrier (BBB) penetration potential of a test compound using MDR1-MDCK cell monolayers. Further details on this method may be found in Taub M E, et al., Functional assessment of multiple Pglycoprotein (P-gp) probe substrates: Influence of cell line and modulator concentration on P-gp activity. Drug Metab Dispos. 2005 November; 33(11): 1679-87 and Wang Q, et al., Evaluation of the MDR-MDCK cell line as a permeability screen for the blood-brain barrier. Int J. Pharm. 2005 Jan. 20; 288(2):349-59; each of which is hereby incorporated by reference. Test compound was formulated in 300 μL of DMSO at 10 mM and diluted to 5 μM in HBSSg with maximum DMSO concentration not greater than 1%. Confluent monolayers of MDR1-MDCK cells, 7 to 11 days old, were used. A receiver well, having apical and basolateral sides at pH 7.4, was used with 1% BSA in modified Hanks buffer (HBSSg). Two monolayers were dosed with test compound in each direction (N=2). Apical side dosing was used for A-B assessment and basolateral side was used for B-A assessment; taken together, this information provides a bidirectional permeability potential. Apical and basolateral sides were sampled at 120 minutes and concentrations of test compound were determined using an LC-MS/MS method with a minimum 4 point calibration curve. Apparent permeability (Papp) in both directions (A-B and B-A) was calculated, as was the efflux ratio (Papp B-A)/(Papp A-B).

[2] = In vivo blood and brain exposure and brain/plasma ratio in ICR mice; details: male ICR mice
Procedure: TRV 1140 was formulated in 3% N-methyl-2-pyrrolidone, 0.5% Cremaphor, 50% olive oil in water. The compound was formulated at a concentration of 2 mg/mL and dosed in a volume of 10 mL/kg to produce a dose of 20 mg/kg. The formulation was an emulsion. Compound was formulated fresh daily. Mice were dosed once daily for three days. Male ICR mice (S.A. Ace Animals; Boyertown, Pa.) were used for this experiment. Animals were group housed and kept on a standard 12 hr light cycle. Food and water were available ad libitum. On the third day mice were dosed with compound. At the designated time after 20 mg/kg dosing (30 min, 2 hrs, 4 hrs), whole blood was collected via the retro-orbital sinus in heparanized tubes and mixed with deionized water at a 1:1 ratio for hemolyzation. Hemolyzed blood was analyzed for levels of test agent. Blood samples were extracted by a standard protocol known in the art. At designated time points, mice were sacrificed. Brains were removed, weighed, and processed. Brains were homogenized and test agent extracted with an acetonitrile homogenization method (1 mL acetonitrile: 1 g brain). Supernatant samples were stored at −80° C. for subsequent analysis of brain levels of test compound. Brain levels of test agent were analyzed by LC/MS/MS.

5xFAD mouse = assay: In vivo efficacy trial in the 5xFAD transgenic AD mouse model; details: wildtype littermate mice
From the text: The 5xFAD mouse (B6SJL-Tg(SwFLon,PSEN1*M 146L*L286V)6799Vas/J; JAX #006554) overexpresses human APP(695) with the Swedish (K670N,M671L), Florida (I716V) and London (V717I) familial AD (FAD) mutations, as well as human presenilin 1 (PSI) with two FAD mutations (M 146L and L286V). These five mutations act additively, leading to large and rapid age-related increases in neuronal Aβ-40 and Aβ-42 peptides beginning at 2 months of age. […] Extra-cellular Aβ plaques are first observed in the hippocampus, subiculum, frontal cortex and spinal cord at 2-3 months of age and increase with age. No neurofibrillary tangles (tau) are observed in the brains of 5xFAD mice. […] Active astrocytes are commonly found surrounding β-amyloid plaques and levels of the pre-synaptic marker synaptophysin are decreased, indicating a decrease in synaptic connectivity to the 5xFAD mouse (Oakley et al., 2006). […] Age-related cognitive impairment in visuo-spatial working memory in the Y-maze occurs at 4-5 months of age. […]
The general procedure for an in vivo efficacy trial with 5xFAD mice is as follows. […] After behavioral testing, mice are sacrificed and their blood and brains assessed for Aβ levels.

T1 sequence (P05067 672-711 limits assumed): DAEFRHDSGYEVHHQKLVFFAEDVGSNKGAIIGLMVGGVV

IC50 (Aβ40): 3.09 ± 0.21 µM
Papp A→B at 120 min, 5 µM ([1]; MDCK-MDR1, apical dosing, pH 7.4, read-out: Papp A-B × 10^−6 cm/s): 15.3 ×10⁻⁶ cm/s
Papp B→A at 120 min, 5 µM ([1]; MDCK-MDR1, basolateral dosing, pH 7.4, read-out: Papp B-A × 10^−6 cm/s): 12.4 ×10⁻⁶ cm/s
efflux ratio at 120 min, 5 µM ([1]; MDCK-MDR1, pH 7.4, read-out: Efflux ratio (Papp B-A)/(Papp A-B)): 0.8
brain penetrance ([2]; 20 mg/kg): highly brain penetrable
time of maximum concentration (blood and brain) ([2]; 20 mg/kg once daily, third day): 4 h
total drug exposure in blood ([2]; 20 mg/kg once daily, third day, 0-4 hr): 450 ng·h/mL
total drug exposure in brain ([2]; 20 mg/kg once daily, third day, 0-4 hr, mean of two samples): 694 ng·h/mL
Cmax ([2]; mouse, brain, 20 mg/kg once daily, third day, read-out: Maximum concentration (Cmax) in brain): 238 ng/mL
Cmax ([2]; mouse, whole blood, 20 mg/kg once daily, third day, read-out: Maximum concentration (Cmax) in blood): 87.5 ng/mL
behavioural performance, WT with compound versus WT with vehicle (5xFAD mouse): no difference in behavioural performance
Compound: O=[N+]([O-])c1ccc(-c2cccc(C(O)C(F)(F)F)c2)cc1NCc1ccccc1 (stereo not drawn) [TRV 1140, 1-(3′-(benzylamino)-4′-nitro-[1,1′-biphenyl]-3-yl)-2,2,2-trifluoroethanol]
Kp ([2]; mouse, brain / plasma (method describes hemolyzed whole blood), 20 mg/kg once daily, third day): 1.54
